Target: human dUTPase (Homo sapiens (Human), UniProt P33316)
Test: Human dUTPase inhibitory effect: production of [5-3H]dUMP from [5-3H]dUTP, measured by HPLC with flow scintillation
Format: biochemical
Conditions: [5-3H]dUMP production from [5-3H]dUTP, 37° C., 15 minutes
Outline: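 E. coli-expressed purified human dUTPase reacted with 1 μM dUTP stock containing [5-3H]dUTP in Tris pH 7.4, MgCl2, 2-mercaptoethanol and albumin, 15 min at 37° C; stopped by 1 min at 100° C. [5-3H]dUMP formed was separated by reversed-phase ion-pair HPLC and quantified by flow scintillation versus water control.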

human dUTPase, sequence (P33316 94-252): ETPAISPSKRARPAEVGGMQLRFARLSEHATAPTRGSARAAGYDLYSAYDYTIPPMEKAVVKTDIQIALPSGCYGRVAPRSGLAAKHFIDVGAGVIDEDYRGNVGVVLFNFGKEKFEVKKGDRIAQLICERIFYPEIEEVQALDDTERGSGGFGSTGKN

Row | Structure (SMILES) | IC50 [nM]
1 | O=c1ccn(COCCCCNS(=O)(=O)c2cccc(OCC3CC3)c2)c(=O)[nH]1 [Example 166, 3-(cyclopropylmethoxy)-N-(4-((2,4-dioxo-3,4-dihydropyrimidin-1(2H)-yl)methoxy)butyl)benzenesulfonamide] | 640
2 | CC(C)(NS(=O)(=O)c1ccccc1)c1ccc(Cn2ccc(=O)[nH]c2=O)cc1 [Example 176, N-(2-(4-((2,4-dioxo-3,4-dihydropyrimidin-1(2H)-yl)methyl)phenyl)propan-2-yl)benzenesulfonamide] | 2690
3 | COc1cccc(S(=O)(=O)NC(C)(C)c2ccc(Cn3ccc(=O)[nH]c3=O)cc2)c1 [Example 177, N-(2-(4-((2,4-dioxo-3,4-dihydropyrimidin-1(2H)-yl)methyl)phenyl)propan-2-yl)-3-methoxybenzenesulfonamide] | 2570
4 | CC(C)(NS(=O)(=O)c1cccc(OCC2CC2)c1)c1ccc(Cn2ccc(=O)[nH]c2=O)cc1 [Example 178, 3-(cyclopropanemethoxy)-N-(2-(4-((2,4-dioxo-3,4-dihydropyrimidin-1(2H)-yl)methyl)phenyl)propan-2-yl)benzenesulfonamide] | 240
5 | CC(C)(NS(=O)(=O)c1cccc(OCC2CC2)c1)c1ccc(Cn2ccc(=O)[nH]c2=O)nc1 [Example 179, 3-(cyclopropanemethoxy)-N-(2-(6-((2,4-dioxo-3,4-dihydropyrimidin-1(2H)-yl)methyl)pyridin-3-yl)propan-2-yl)benzenesulfonamide] | 110

Second part, the molecule after the results:

Row | IC50 [nM] | Structure (SMILES)
6 | 6020 | O=c1ccn(COCCCC2(NS(=O)(=O)c3ccccc3)CC2)c(=O)[nH]1 [Example 164, N-(1-(3-((2,4-dioxo-3,4-dihydropyrimidin-1(2H)-yl)methoxy)propyl)cyclopropyl)benzenesulfonamide]
7 | 1860 | COc1cccc(S(=O)(=O)NC2(CCCOCn3ccc(=O)[nH]c3=O)CC2)c1 [Example 165, N-(1-(3-((2,4-dioxo-3,4-dihydropyrimidin-1(2H)-yl)methoxy)propyl)cyclopropyl)-3-methoxybenzenesulfonamide]
8 | 130 | O=c1ccn(COCCCC2(NS(=O)(=O)c3cccc(OCC4CC4)c3)CC2)c(=O)[nH]1 [Example 167, 3-(cyclopropylmethoxy)-N-(1-(3-((2,4-dioxo-3,4-dihydropyrimidin-1(2H)-yl)methoxy)propyl)cyclopropyl)benzenesulfonamide]
